19 compounds from ChEMBL document CHEMBL6153054, “Synthesis and discovery of simplified pleurotin analogs bearing tricyclic core as novel thioredoxin reductase inhibitors” (Eur J Med Chem, 2025) can be followed below.

The subject of test [1] is MCF7. Kind of test: Antiproliferative activity against human MCF7 cells assessed as reduction in cell growth after 72 hrs by MTT assay. Format: functional, cell-based. The settings on record: MCF7, 72 h. For orientation: Tetrazolium assays rely on reduction of a dye to a coloured formazan, in cell work by metabolically active cells.
Test [2] concerns HepG2. Kind of test: Antiproliferative activity against human HepG2 cells assessed as reduction in cell growth after 72 hrs by MTT assay. As to conditions: HepG2, 72 h. Format: functional, cell-based.
Test [3] is filed under the species Homo sapiens. The test can be described thus: Inhibition of TrxR (unknown origin) at 5 uM by […]-reagent based assay relative to control.
Test [4] deals with HepG2. The test can be described thus: Induction of apoptosis in human HepG2 cells assessed as early apoptotic cells at 50 uM incubated for 24 hrs by Annexin V/PI staining based flow cytometry analysis (reference value: 3.64%). The class given is functional.
For test [5], the system named is HepG2. Kind of test: Induction of intracellular ROS generation in human HepG2 cells assessed as increase in red fluorescence at 6.25 to 12.5 uM incubated for 6 hrs by DHE probe based fluorescence microscopic analysis. Format: functional, cell-based. As to conditions: dose 6.25-12.5 µM.
In test [6] the test system is HepG2. Kind of test: Induction of apoptosis in human HepG2 cells assessed as early apoptotic cells incubated for 24 hrs by Annexin V/PI staining based flow cytometry analysis. The class given is functional, cell-based. As to conditions: dose 12.5-50 µM. For orientation: In flow cytometry, cells or beads pass a laser one at a time.
The subject of test [7] is HepG2. Kind of test: Induction of apoptosis in human HepG2 cells assessed as necrotic cells at 12.5 uM incubated for 24 hrs by Annexin V/PI staining based flow cytometry analysis (reference value: 0.21%). The class given is functional.
For test [8], the system named is HepG2. The test can be described thus: Induction of apoptosis in human HepG2 cells assessed as necrotic cells at 25 uM incubated for 24 hrs by Annexin V/PI staining based flow cytometry analysis (reference value: 0.21%). The class given is functional.
Test [9] relates to HepG2. The test can be described thus: Induction of apoptosis in human HepG2 cells assessed as viable cells at 25 uM incubated for 24 hrs by Annexin V/PI staining based flow cytometry analysis (reference value: 94.9%). As to conditions: read-out: Activity. The class given is functional.
For test [10], the species on record is Homo sapiens. The test can be described thus: Inhibition of TrxR (unknown origin) at 8 uM by […]-reagent based assay relative to control.
The test system of test [11] is HepG2. Kind of test: Induction of apoptosis in human HepG2 cells assessed as late apoptotic cells incubated for 24 hrs by Annexin V/PI staining based flow cytometry analysis. As to conditions: dose 12.5-50 µM. The class given is functional, cell-based.
The test system of test [12] is HepG2. The test can be described thus: Induction of apoptosis in human HepG2 cells assessed as early apoptotic cells at 12.5 uM incubated for 24 hrs by Annexin V/PI staining based flow cytometry analysis (reference value: 3.64%). The class given is functional.
The test system of test [13] is HepG2. The test can be described thus: Induction of apoptosis in human HepG2 cells assessed as early apoptotic cells at 25 uM incubated for 24 hrs by Annexin V/PI staining based flow cytometry analysis (reference value: 3.64%). Format: functional.
The test system of test [14] is HepG2. Kind of test: Inhibition of TrxR in human HepG2 cells assessed as decrease in green fluorescence at 12.5 to 50 uM incubated for 24 hrs by immunofluorescence assay. The class given is cell-based. The settings on record: dose 12.5-50 µM.
The subject of test [15] is HepG2. The test can be described thus: Induction of intracellular ROS generation in human HepG2 cells assessed as increase in green fluorescence at 6.25 to 12.5 uM incubated for 6 hrs by DCFH-DA probe based fluorescence microscopic analysis. The class given is functional, cell-based. As to conditions: dose 6.25-12.5 µM.
Test [16] relates to HepG2. Kind of test: Induction of intracellular ROS generation in human HepG2 cells at 6.25 uM incubated for 3 to 12 hrs by DCFH-DA probe based fluorescence microscopic analysis. The settings on record: time 3-12 hrs. Format: functional, cell-based.
The test system of test [17] is HepG2. Kind of test: Induction of apoptosis in human HepG2 cells assessed as viable cells at 50 uM incubated for 24 hrs by Annexin V/PI staining based flow cytometry analysis (reference value: 94.9%). The class given is functional. The settings on record: read-out: Activity.
Test [18] in a line: Inhibition of TrxR (unknown origin) by […]-reagent based assay. Also on record: species or system Homo sapiens.
The subject of test [19] is HepG2. Kind of test: Induction of apoptosis in human HepG2 cells assessed as necrotic cells at 50 uM incubated for 24 hrs by Annexin V/PI staining based flow cytometry analysis (reference value: 0.21%). Format: functional.
Test [20] has as its system HepG2. The test can be described thus: Induction of apoptosis in human HepG2 cells assessed as late apoptotic cells at 25 uM incubated for 24 hrs by Annexin V/PI staining based flow cytometry analysis (reference value: 1.30%). The class given is functional.
In test [21] the test system is HepG2. The test can be described thus: Induction of apoptosis in human HepG2 cells assessed as viable cells at 12.5 uM incubated for 24 hrs by Annexin V/PI staining based flow cytometry analysis (reference value: 94.9%). The class given is functional. As to conditions: read-out: Activity.
For test [22], the system named is HepG2. The test can be described thus: Inhibition of TrxR in human HepG2 cells incubated for 24 hrs by immunofluorescence assay. The class given is cell-based. As to conditions: dose 12.5-50 µM.
The test system of test [23] is HepG2. The test can be described thus: Induction of apoptosis in human HepG2 cells assessed as late apoptotic cells at 12.5 uM incubated for 24 hrs by Annexin V/PI staining based flow cytometry analysis (reference value: 1.30%). The class given is functional.
Test [24] concerns HepG2. The test can be described thus: Induction of apoptosis in human HepG2 cells assessed as late apoptotic cells at 50 uM incubated for 24 hrs by Annexin V/PI staining based flow cytometry analysis (reference value: 1.30%). The class given is functional.
Test [25] in a line: Inhibition of TrxR in human SGC-7901 cells. The class given is cell-based.
Test [26] in a line: Inhibition of TrxR (unknown origin). The arrangement: species or system Homo sapiens.

The source made the active and inactive calls. No cut-off for these calls is given here.

Regarding `C[C@@]12CCC[C@@H](O)[C@@H]1CC1=C(C2)C(=O)C=CC1=O`, the IC50 (commonly the midpoint of a concentration-inhibition curve) in test [1] was found to be 15.6 µM; in test [2], 36.6 µM. In addition, the inhibition – broadly, how much of the control response was suppressed – in test [3] was 34.9%.

Regarding `C[C@@]12CCC[C@](O)(c3ccc(C#N)cc3)[C@@H]1CC1=C(C2)C(=O)C=CC1=O`, the Activity was 22.7% in test [4]; “Dose-dependent-effect” in [6]; 0.3% in test [7]; 1.39% in [8]; “Dose-dependent-effect” in [11]; 5.54% in [12]. The Activity is given as 13.9% in test [13]; 10.7% in [19]; 3.39% in test [20]; 1.82% in test [23]; 12.6% in [24]. The IC50 was 28.2 µM in test [1], 19.4 µM in test [2] and 3.5 µM in test [18]. The outcome in test [5], in [15] and in [16] was Active. Besides, the viability at 25 µM in test [9] turned out to be 81.3%. The inhibition in test [10] is 100%; in test [22], “Dose-dependent-effect”; in test [3], 71.9%. In addition, in test [14], the inhibition entry was “Active”. For the same compound, the viability at 50 µM in test [17] turned out to be 54%. Besides, the viability at 12.5 µM in [21] turned out to be 92.2%.

With `Cc1ccc([C@@]2(O)CCC[C@@]3(C)CC4=C(C[C@H]32)C(=O)C=CC4=O)cc1`, the IC50 is 36.9 µM in test [1] and over 100 µM in test [2]. The same compound had an inhibition in [3] of 11.8%.

For the compound `C[C@@]12CCCC(=O)[C@@H]1CC1=C(C2)C(=O)C=CC1=O`, the IC50 in test [1] turned out to be 30.7 µM; in test [2] it was 62.6 µM. Also, the inhibition in test [3] stood at 18.5%.

With `C=CC(=O)O[C@@H]1CCC[C@@]2(C)CC3=C(C[C@@H]12)C(=O)C=CC3=O`, the IC50 in test [1] was determined as 16.4 µM; in test [2] it was 59.6 µM. The compound further came in with an inhibition in test [3] of 19.7%.

Consider `C[C@@]12CCC[C@](O)(c3ccoc3)[C@@H]1CC1=C(C2)C(=O)C=CC1=O`, for which the IC50 in test [1] and in [2] was over 100 µM in each case.

Regarding `C[C@@]12CCCC(=O)[C@@H]1[C@H](O)C1=C(C2)C(=O)C=CC1=O`, the IC50 in test [1] stood at 32.4 µM; in test [2], 48.5 µM. Further, the inhibition in [3] is 60.4%.

On to `CCc1ccc([C@@]2(O)CCC[C@@]3(C)CC4=C(C[C@H]32)C(=O)C=CC4=O)cc1`, for which the IC50 in test [1] stood at 19.6 µM; in test [2], 46.5 µM. In test [3], this compound came in with an inhibition of 19.6%.

Take `COc1ccccc1/C=C/C(=O)/C=C/c1ccccc1OC`: the IC50 in test [25] is about 50 µM.

On to `C=CC(=O)O[C@@H]1C2=C(C[C@]3(C)CCCC(=O)[C@H]13)C(=O)C=CC2=O`, for which the IC50 in test [1] and in test [2] was over 100 µM each time.

Regarding `C[C@@]12CCC[C@](O)(c3ccc(C(F)(F)F)cc3)[C@@H]1CC1=C(C2)C(=O)C=CC1=O`, the IC50 in test [1] was 13.6 µM; in [2], 69.5 µM. Moreover, the inhibition in test [3] was 15.7%.

Consider `C=C1CCC[C@@]2(C)CC3=C(C[C@@H]12)C(=O)C=CC3=O` [CORDIACHROME B], for which the IC50 in test [1] was 59.3 µM; in [2], over 100 µM. In [3], this compound gave an inhibition of 19.6%.

Turning to `C[C@@]12CCC[C@@H](CO)[C@@H]1CC1=C(C2)C(=O)C=CC1=O`, the IC50 in [1] is 43.7 µM; in test [2] it was 71.7 µM. This compound came in with an inhibition in test [3] of 13.7%.

`C=C1C(=O)O[C@H]2[C@H]1CCC(C)=C1CC[C@@](C)(O)[C@@H]12` [MICHELIOLIDE]: the IC50 in test [1] was determined as 23.4 µM; in test [26], 6.23 µM; in [2] it was 10.9 µM; in test [18], 6.23 µM. Moreover, in [3], the inhibition turned out to be 34.2%.

As to `C[C@@]12CCC[C@](O)(c3ccccc3)[C@@H]1CC1=C(C2)C(=O)C=CC1=O`, the IC50 came out at 24.2 µM in test [1] and 34 µM in test [2]. The compound further returned an inhibition in test [3] of 19.6%.

In the case of `C[C@@]12CCC[C@](O)(c3ccccn3)[C@@H]1CC1=C(C2)C(=O)C=CC1=O`, the values for the IC50 in test [1] and in test [2] were 28.8 µM and 45.3 µM, respectively. This compound registered an inhibition in [3] of 23.5%.

Consider `COc1ccc([C@@]2(O)CCC[C@@]3(C)CC4=C(C[C@H]32)C(=O)C=CC4=O)cc1`, for which the IC50 in [1] was 17.4 µM; in test [2], over 100 µM. Moreover, in [3], the inhibition stood at 9.8%.

As for `C[C@@]12CCC[C@@H](C(=O)O)[C@@H]1CC1=C(C2)C(=O)C=CC1=O`, the figures for the IC50 in test [1] and in test [2] were 43.3 µM and 27.8 µM, respectively. The inhibition in test [3] came out at 21.6%.

With `C[C@H]1CO[C@H]2C3=C(C(=O)C=CC3=O)[C@@H]3OC(=O)[C@H]4CC[C@@H]5[C@H]1CC[C@@]52[C@@H]43`, the IC50 in test [1] was over 100 µM; in test [26], 0.17 µM; in test [2], 55 µM.
